Source: patent US7294648B2, “Anthranyl derivatives having an anticholecystokinin activity (anti-cck-1), a process for their preparation, and pharmaceutical use thereof” (Rottapharm S.p.A., priority 2002, dated 2007)
pIC50: −log10 of the molar value. Read-outs that look alike come from different tables or passages of the source.

Assays:
CCK-1 receptors = molecular target: T1, CCK-1 receptors (Rattus norvegicus, UniProt P30551); test: Inhibition of binding of [125I]-BH-CCK-8 to isolated rat pancreatic acini; settings: for affinity for the CCK-1 receptors of the pancreatic acini of rat, in words: summary of Table 2
T1 construct: The pancreatic acini obtained from the outbred male rat pancreas of the Sprague Dawley strain; from tissue; host or cells: isolated pancreatic acini of male Sprague Dawley rats
T1 sequence (P30551 1-444): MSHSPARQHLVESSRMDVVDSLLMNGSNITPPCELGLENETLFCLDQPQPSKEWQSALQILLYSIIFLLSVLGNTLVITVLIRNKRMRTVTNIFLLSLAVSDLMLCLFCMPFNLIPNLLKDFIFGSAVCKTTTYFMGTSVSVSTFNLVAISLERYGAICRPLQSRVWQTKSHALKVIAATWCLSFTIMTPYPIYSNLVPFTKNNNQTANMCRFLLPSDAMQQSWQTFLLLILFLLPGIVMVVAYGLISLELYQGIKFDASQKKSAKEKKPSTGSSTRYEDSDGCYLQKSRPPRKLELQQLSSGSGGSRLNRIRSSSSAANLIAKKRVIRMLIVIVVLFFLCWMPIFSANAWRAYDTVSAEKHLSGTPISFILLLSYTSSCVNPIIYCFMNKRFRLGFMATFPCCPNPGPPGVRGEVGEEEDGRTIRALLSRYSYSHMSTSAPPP
Method: The pancreatic acini obtained from the outbred male rat pancreas of the Sprague Dawley strain, were incubated in the presence of radioactive tracers and the compound studied for 30 minutes at 37° C. After having discarded the supernatant, the radioactivity associated with the pellet was determined with a liquid scintillator. The specific binding was determined as the difference between the binding in the absence and in the presence of CCK-8, 1.10^−6M. […] The values of IC50 reported were calculated with the […] of a set of at least 3 experiences for each compound studied.

CCK-2 receptor [1] = molecular target: T2, CCK-2 receptor (Cavia porcellus, UniProt H0VZC5); test: Inhibition of the binding of [125I]-BH-CCK-8 to the cortical membrane of guinea pigs; set-up: species or system guinea pig; settings: 120 minutes at 25° C.; 25 pM marked binder; at least 3 tests
T2 construct: The incubation of the cerebral membranes together with the radioactive tracers and the compounds under study; from tissue; host or cells: cerebral cortex membranes of male albino Hartley guinea pigs
T2 sequence (H0VZC5 1-426): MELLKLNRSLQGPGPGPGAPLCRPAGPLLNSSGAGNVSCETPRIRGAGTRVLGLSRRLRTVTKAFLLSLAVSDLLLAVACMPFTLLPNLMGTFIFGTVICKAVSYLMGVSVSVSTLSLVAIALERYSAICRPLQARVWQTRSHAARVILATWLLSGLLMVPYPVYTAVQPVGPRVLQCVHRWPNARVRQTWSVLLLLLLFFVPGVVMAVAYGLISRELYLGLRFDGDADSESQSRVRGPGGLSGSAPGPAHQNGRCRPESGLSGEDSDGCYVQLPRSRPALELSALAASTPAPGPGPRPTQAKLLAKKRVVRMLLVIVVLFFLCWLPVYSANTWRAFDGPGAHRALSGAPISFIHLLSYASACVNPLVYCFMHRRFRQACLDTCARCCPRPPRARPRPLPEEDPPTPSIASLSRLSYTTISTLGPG
Method: (§1) For this purpose binding tests were performed on cerebral cortex of male albino guinea pigs outbred from the Hartley strain, using as marked binder the [^125I]-BH-CCK-8 sulphate, according to the procedure described by Makovec F. [J. Med. Chem. 35, (1992),28].
(§2) The incubation of the cerebral membranes together with the radioactive tracers and the compounds under study was effected on multi-well plates for 120 minutes at 25° C. Each well contained membrane corresponding to about 0.5 mg of proteins/ml and 25 pM of marked binder in a total volume of 250 micro litres. The specific binding was determined as the difference between the binding in the absence and in the presence of CCK-8, 1.10^−6M. At the end of the incubation a rapid filtration of the plate was performed under vacuum and the radioactivity of the individual filters extracted from the wells was measured with a γ-emission counter. The results obtained are shown in Table 3, in which the tested compounds are indicated, the IC50 calculated with the regression method on a set of at least 3 tests for each compound studied and an index derived from the ratio of the affinity obtained for the two types of receptor CCK-2 and CCK-1.

CCK-2 receptor [2] = test: as above; set-up: species or system guinea pig; settings: IC50 CCK-2 (guinea pig cortex) / IC50 CCK-1 (rat pancreatic acini, Table 2)
Method: as §1, §2

[3] = molecular target: T3, CCK-1 (guinea pig gall bladder) (Cavia porcellus, UniProt Q63931); test: Inhibition of the in vitro CCK-8 induced contraction of guinea pig gall bladder; type: cell-based; settings: CCK-8 5 ng/ml; average of at least two experiments, 6-8 concentrations
T3 construct: A guinea pig gall bladder stimulated in vitro by CCK-8; from tissue; host or cells: isolated guinea pig gall bladder
T3 sequence (Q63931 1-430): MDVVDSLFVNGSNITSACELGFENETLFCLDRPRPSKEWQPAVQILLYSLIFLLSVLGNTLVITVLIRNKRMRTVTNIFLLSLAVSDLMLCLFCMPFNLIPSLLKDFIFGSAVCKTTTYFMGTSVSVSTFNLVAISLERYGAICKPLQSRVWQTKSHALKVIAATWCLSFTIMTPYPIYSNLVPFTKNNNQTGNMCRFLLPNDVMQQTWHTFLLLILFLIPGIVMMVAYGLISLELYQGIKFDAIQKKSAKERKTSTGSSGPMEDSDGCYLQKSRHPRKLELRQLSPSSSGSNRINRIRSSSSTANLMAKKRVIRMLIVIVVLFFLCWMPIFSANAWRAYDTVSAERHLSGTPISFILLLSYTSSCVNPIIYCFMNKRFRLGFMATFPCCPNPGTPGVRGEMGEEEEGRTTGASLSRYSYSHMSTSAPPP
Description: A guinea pig gall bladder stimulated in vitro by CCK-8 according to the method described by Makovec et al. was used as an experimental model. [Arzneim. Forsch. Drug Res. 35 (7), 1048 (1985)]. The results thus obtained are illustrated in the following Table 4 in which the values of IC50 (moles/litre) are reported.

[4] = 30 minutes at 37° C., at least 3 experiments, read-out: IC50, inhibition of binding of [125I]-BH-CCK-8 to isolated rat pancreatic acini

pIC50 (CCK-2 receptor [1]) | index derived from the ratio of the affinity obtained for the two types of receptor CCK-2 and CCK-1 (CCK-2 receptor [2]) | pIC50 [3] | affinity for the CCK-1 receptors of the pancreatic acini of rat, in words (CCK-1 receptors) | pIC50 (CCK-1 receptors; [4]) | SMILES | pIC50 (CCK-1 receptors)
4.97 | 1542.9 | 7.82 | nanomolar level | 8.15 | O=C(Nc1ccccc1C(=O)NC(CCc1ccccc1)C(=O)O)c1cc2cc(F)ccc2[nH]1 (centres unmarked) [Compound 23] | 
< 4.52 | >4286 | 8.10 | nanomolar level | 8.15 | Cc1ccccc1CCC(NC(=O)c1ccccc1NC(=O)c1cc2ccccc2[nH]1)C(=O)O (centres unmarked) [Compound 25] | 
5.29 | 572.2 | 7.37 | nanomolar level | 8.05 | Cc1ccccc1CCC(NC(=O)c1ccccc1NC(=O)c1cc2cc(F)ccc2[nH]1)C(=O)O (centres unmarked) [Compound 26] | 
5.46 | 437.5 | 7.52 | nanomolar level | 8.10 | COc1ccccc1CCC(NC(=O)c1ccccc1NC(=O)c1cc2ccccc2[nH]1)C(=O)O (centres unmarked) [Compound 30] | 

SMILES | pIC50 (CCK-2 receptor [1]) | index derived from the ratio of the affinity obtained for the two types of receptor CCK-2 and CCK-1 (CCK-2 receptor [2]) | pIC50 [3] | affinity for the CCK-1 receptors of the pancreatic acini of rat, in words (CCK-1 receptors) | pIC50 (CCK-1 receptors; [4]) | pIC50 (CCK-1 receptors)
O=C(Nc1ccccc1C(=O)NC(CCc1ccccc1)C(=O)O)c1cc2ccccc2[nH]1 (centres unmarked) [Compound 20] | 5.65 | 158.6 | 7.46 |  |  | 7.85
O=C(Nc1ccccc1C(=O)N[C@H](CCc1ccccc1)C(=O)O)c1cc2ccccc2[nH]1 [Compound 21] | 5.42 | 422.2 | 7.70 | nanomolar level |  | 8.05
